Laboratory results taken from patent US20030165919A1, “Method for the analysis of exogenic and endogenic cell activiation based on measuring the aggregation of receptors” (priority 2000, published 2003).

Legend:
CD11b and CD14 = target: T1, CD11b and CD14 (Homo sapiens, UniProt P08571); assay: FRET flow cytometry: co-assembly of CD11b and CD14 on monocytes; type: cell-based; details: for co-assembly of CD11b and CD14 (energy transfer between monoclonal antibodies): human monocytes in whole blood, stimulation with the substance alone, 37° C. 15 minutes
T1 construct: endogenous in cells; host or cells: human monocytes in heparinised whole blood (healthy donors and patients)
T1 sequence (P08571 20-345 limits assumed): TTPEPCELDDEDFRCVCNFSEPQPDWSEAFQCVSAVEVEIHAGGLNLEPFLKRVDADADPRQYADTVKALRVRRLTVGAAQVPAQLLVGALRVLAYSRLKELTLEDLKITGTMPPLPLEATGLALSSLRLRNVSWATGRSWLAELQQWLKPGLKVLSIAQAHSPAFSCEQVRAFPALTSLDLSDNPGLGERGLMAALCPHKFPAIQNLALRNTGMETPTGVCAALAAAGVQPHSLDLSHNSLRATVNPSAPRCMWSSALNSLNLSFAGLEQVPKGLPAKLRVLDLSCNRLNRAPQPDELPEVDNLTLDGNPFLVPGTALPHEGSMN
Protocol: (§1) Aliquots […] of whole blood were incubated with the following stimulatory compounds at 37° C. for 15 minutes: LPS of Salmonella minnesota (0.1-10 nM, Mw 10 kDa), ceramide (primarily stearic acid and nervonic acid) and sulfogalactosyl ceramide (SG-cer, […]), both of which tested LPS free in the LAL assay (Cer, 1 nM-5.5 mM), lysophosphatidyl choline (lyso-PC, 10 mM), phorbol-12-myristate-13-acetate (PMA, 1 mM), N-formyl-L-methionyl-L-leucyl-L-phenyl alamine (fMLP, 1 mM), PE, PC, PI and PS liposomes (10 mm) which had been prepared as described above. All reagents were obtained from Sigma. In addition, the cells were stimulated with HPS70 (7 nM), dHSP70 (7 nM) and SG-cer+dHSP70 (40 nM+7 nM). After incubation, the cells were washed with cold PBS containing 0.1% of NaN3. The synthetic LPS antagonist lipid IVa (“compound-406”, 1-400 ng/ml) and lipid A derived from E. coli (1-100 ng/ml) were made available by courtesy of Dr. S. Kusumoto. The cells were pre-incubated with the LPS antagonist at 37° C. for 15 minutes and then stimulated with LPS at the same temperature (without washing).
Whole blood cells which had been stimulated or washed ex vivo […] were incubated on ice for 15 minutes with saturation concentrations of monoclonal fluorochrom-conjugated or biotinylated antibodies. The monoclonal antibodies CD11a (clone 25.3.1), CD16a (clone 3G8). CD18 (clone 7E4), CD14 (clone RMO52), CD33 (clone My9-RD1). CD81 (clone Js64) were obtained as R-phyco-erythrine (R-PE) conjugates and CD25 (clone B1.49.9) in biotinylated form from Coulter/Immunotech (Krefeld, Germany). CD11b (clone d12), CD11c (clone S-HCL-3), CD36 (clone CB38), CD47 (clone B6H12), CD81 (clone JS-81) and (Cd55 (clone IA10) in biotinylated form and Streptavidin-R-PE were purchased from Becton/Dickinson/Pharningen (Heidelberg, Germany) CD18 (clone IB4) in biontinylated form and CD40 (clone EA-5) as R-PE conjugate were obtained from Alexis (Grünberg, Germany) and CD14 (clones ×8 and Uchml) and CD3 (clone Cris-7) in biotinylated form and Streptavidin-Cy5 (Sa-Cy5) from Dianova (Hamburg, Germany), CD32 (clone C1KM5) and CD64 (clone 10.1) were obtained as R-PE conjugates from Caltag (Burlingame, U.S.A.) and CD91 (clone 8G1) in biotinylated form from Proen (Heidelberg, Germany). A monoclonal anti-TLRA antibody (clone HTA125) was kindly provided by Dr. Kensuke. Since no energy transfer between the antibodies directed against the CD14/CD11a and CD14/CD11c pairs was detectable either on resting or on stimulated cells, these antibody combinations were not characterised further.
Lysis of erythrocytes and washing were carried out as described (Rothe et al., Thromb. Vasc. Biol. 16 (1996), 1437-1447). After the last washing step, the samples were divided and part of each sample incubated with a saturating amount of SA-Cy5 on ice for 15 minutes and washed before measuring.
For energy transfer experiments, […] aliquots of whole blood were treated with cholesterol/methyl cyclodextrine (C/C) (100 mg/ml/4.6 mg/ml) or 2-hydroxypropyl-β-cyclodextrine (0.15 mg/ml) at 37° C. for 30 minutes and then stimulated further with LPS (4 nM) or ceramide (40 nM) as described above. The energy transfer between CD14 and CD11b was measured.
A “FACSCalibur” flow cytometer (Becton Dickinson) equipped with an air-cooled 15 mW argon laser (excitation wavelength 488 nm), a diode laser (excitation wavelength […]) and standard filters [channel 1 (FITC): 530/30 nm band pass filter; channel 2 (R-PE being used as donor dye); 585/47 nm band pass filter; channel 3 (PerCP): pass having a length of >670 nm; and channel 4 (Cy5being used as recipient dye): 661/16 nm bad pass filter] was used. The Cellquest software (Becton Dickinson) was used for the measurements. […] Measurement was conducted without compensation. 50,000 leukocytes were required in the “list” modus, forward scattering (FSC) being used as a trigger signal. […]

[1] = target: T2, receptor cluster comprising CD14 (Homo sapiens, UniProt P08571); assay: FRET with a series of antibody pairs: receptor cluster comprising CD14 on monocytes; type: cell-based; details: stimulation of the cells as control
T2 construct: endogenous in cells; host or cells: human monocytes in whole blood
T2 sequence (P08571 20-345 limits assumed): T1 sequence (P08571 20-345 limits assumed)
Protocol: as §1
Whole blood cells which had been stimulated or washed ex vivo […] were incubated on ice for 15 minutes with saturation concentrations of monoclonal fluorochrom-conjugated or biotinylated antibodies. The monoclonal antibodies CD11a (clone 25.3.1), CD16a (clone 3G8). […]

human CD14 = target: T3, human CD14 (Homo sapiens, UniProt P08571); assay: Binding of [14C]N-palmitoyl-D-sphingosine to CHO cells transfected with human CD14
T3 construct: expressed in transfected cells; host or cells: CHO cells (control: pPol-DHFR vector)
T3 sequence (P08571 20-345): T1 sequence (P08571 20-345 limits assumed)
Protocol: d. CHO cells transfected with human CD14 (-unlabelled ceramide)(●)+unlabelled ceramide (∘)) or with a pPol-DHFR vector (-unlabelled ceramide (▪)+unlabelled ceramide (□)) were incubated with the specified concentrations of [^14C]N-palmitoyl-D-sphingosine and the ^14C bound to the cells determined. Each data point represents the mean value ± SD of three measurements.
Cells transfected with human CD14 or the pPol-DHFR vector were grown as described recently (Stelter et al., Eur. J. Biochem. 238 (1996), 457-464). The cells were trypsinated, washed twice with PBS and then taken up in PBS containing 10% of human serum. CHO cells (4×10^5) were pre-incubated on ice in the presence of a 50 fold excess of unlabelled N-palmitoyl-D-sphingosine (Sigma) for 15 minutes in a final volume of […]. After that [^14C]N-palmitoyl-D-sphingosine (American Radiolabeled Chemicals Inc., St. Louis, Mo., U.S.A.) was added and the cells incubated for another 15 minutes. In order to remove non-bound activity, the cells were washed twice and then transferred to a fresh Eppendorf vessel. After repeated washing, the pellet was dissolved in […] of 1% SDS, 10 mM EDTA and then added to 3 ml of scintillation liquid. The amount of cell-bound radioactivity was determined by measuring the scintillation of the liquid.

SMILES | co-assembly of CD11b and CD14 (energy transfer between monoclonal antibodies) (CD11b and CD14) | energy transfer between any of the antibody pairs [1] | inhibition of binding by 50-fold excess of unlabelled ligand (human CD14; CD14-transfected CHO fibroblasts) | binding to CD14-transfected CHO fibroblasts compared to vector-transfected cells (human CD14; cell-bound 14C, PBS with 10% human serum, on ice 15 minutes) | effect on LPS-induced co-association between CD14 and CD11b (CD11b and CD14; antagonist given in vitro 15 minutes before stimulation, LPS 4 nM + c-406 400 ng/ml) | effect on ceramide-induced co-association between CD14 and CD11b (CD11b and CD14; antagonist given in vitro 15 minutes before stimulation, ceramide 10 nM + c-406 100 ng/ml)
CCCCCCCCCCCCCC(=O)O[C@@H]1[C@@H](C)[C@@]2(O)[C@@H](C=C(CO)C[C@]3(O)C(=O)C(C)=C[C@@H]23)[C@@H]2C(C)(C)[C@]12OC(C)=O [PMA, phorbol-12-myristate-13-acetate] | neither fMLP or PMA showed any effect | did not result in any significant energy transfer | – | – | – | –
CCCCCCCCCCCCC/C=C/[C@@H](O)[C@H](CO)N[14C](=O)CCCCCCCCCCCCCCC [[^14C]-N-palnitoyl-D-sphingosine, [^14C]N-palmitoyl-D-sphingosine] | – | – | could be inhibited by adding a 50-fold excess of unlabelled ligand | much higher when compared to vector-transfected cells | – | –
CCCCCCCCCCC[C@@H](O)CC(=O)N[C@H]1[C@H](OC[C@H]2O[C@H](OP(=O)(O)O)[C@H](NC(=O)C[C@H](O)CCCCCCCCCCC)[C@@H](OC(=O)C[C@H](O)CCCCCCCCCCC)[C@@H]2O)O[C@H](CO)[C@@H](OP(=O)(O)O)[C@@H]1OC(=O)C[C@H](O)CCCCCCCCCCC [compound-406] | did not induce co-assembly of the receptors CD14 and CD11b | – | – | – | reduced the LPS- or ceramide-induced co-association between CD14 and CD11b significantly | reduced the LPS- or ceramide-induced co-association between CD14 and CD11b significantly
